Test results from patent publication US20050037090A1, “Combination therapy including a cyclooxygenase-2 inhibitor and an antineoplastic agent” (priority 1998, published 2005).
Read-outs that look alike come from different tables or passages of the source.

What was measured:
[1] = system: HT-29 human colon cancer cells; conditions: mice with HT-29 tumors; 5-FU i.p. 50 mg/kg on days 12, 13, 14, 15; celecoxib in the diet
Protocol: (§1) Mice were injected subcutaneously in the left paw (1×10^6 tumor cells suspended in 30% Matrigel) and tumor volume was evaluated using a phlethysmometer twice a week for 30-60 days. Implantation of human colon cancer cells (HT-29) into nude mice produces tumors that will reach 0.6-2 ml between 30-50 days. […] The data are expressed as the mean+/−SEM. Student's and Mann-Whitney tests were used to assess differences between means using the InStat software package.
(§2) The efficacy of both agents were determined by measuring tumor volume.

[2] = system: HT-29 human colon cancer cells; experiment: HT-29 Model, third assay (C): tumor volume, 5-FU days 14-17 with or without celecoxib or valdecoxib in the diet (Table 21); format: in vivo, mice; conditions: for reduction in tumor volume: mice with HT-29 tumors, 5-FU i.p. 50 mg/kg days 14 through 17, celecoxib 1600 ppm, valdecoxib 160 ppm in the diet
Protocol: as §1, §2

Lewis Lung tumors = experiment: Lewis Lung Model: tumor volume and lung metastasis in mice; format: in vivo
Protocol: Mice were injected subcutaneously in the left paw (1×10^6 tumor cells suspended in 30% Matrigel) and tumor volume was evaluated using a phlethysmometer twice a week for 30-60 days. […] The data are expressed as the mean+/−SEM. Student's and Mann-Whitney tests were used to assess differences between means using the InStat software package. […] Analysis of lung metastasis was done in all the animals by counting metastasis in a stereomicroscope and by histochemical analysis of consecutive lung sections.

[3] = system: HT-29 human colon cancer cells; experiment: HT-29 Model, fourth assay (D): celecoxib 10, 40 or 160 ppm in the diet from day 10 (Table 22); format: in vivo, mice; conditions: celecoxib 10, 40 or 160 ppm in the diet beginning at day 10
Protocol: as §1

[4] = system: HT-29 human colon cancer cells
Protocol: as §1, §2

O=c1[nH]cc(F)c(=O)[nH]1 [5-FU, 5-fluorouracil]
reduction of tumor volume [1]: 61% | reduction in tumor volume [2]: 35%

Cc1ccc(-c2cc(C(F)(F)F)nn2-c2ccc(S(N)(=O)=O)cc2)cc1 [celecoxib, 4-[5-(4-methylphenyl)-3-(trifluoromethyl)-1H-pyrazol-1-yl]-benzenesulfonamide]
reduction of tumor volume [1]: 68% | size of the metastasic lesions in the lung, histopathological analysis (Lewis Lung tumors; celecoxib in the diet): dose-dependently reduced | reduction of surface metastasis (lung) (Lewis Lung tumors; celecoxib in the diet 480-3200 ppm): more than 50% | effect on lung metastasis (Lewis Lung tumors; celecoxib in the diet, lower dose of 160 ppm): did not affect | Tumor Volume ([2]; celecoxib 160 ppm in diet, day 11): 0.05 mL | Tumor Volume ([2]; celecoxib 160 ppm in diet, day 14): 0.13 mL | Tumor Volume ([2]; celecoxib 160 ppm in diet, day 18): 0.17 mL | Tumor Volume ([2]; celecoxib 160 ppm in diet, day 21): 0.2 mL | Tumor Volume ([2]; celecoxib 160 ppm in diet, day 28): 0.25 mL | Tumor Volume ([2]; celecoxib 160 ppm in diet, day 35): 0.35 mL | Tumor Volume ([2]; celecoxib 160 ppm in diet, day 42): 0.52 mL | reduction in tumor volume [2]: 52% | effect on HT-29 tumors, dose dependence [3]: approximate dose dependent effect

Cc1onc(-c2ccccc2)c1-c1ccc(S(N)(=O)=O)cc1 [valdecoxib, 4-(5-methyl-3-phenylisoxazol-4-yl)benzenesulfonamide]
reduction in tumor volume [2]: 69% | Tumor Volume ([2]; valdecoxib 160 ppm in diet, day 11): 0.06 mL | Tumor Volume ([2]; valdecoxib 160 ppm in diet, day 14): 0.13 mL | Tumor Volume ([2]; valdecoxib 160 ppm in diet, day 18): 0.17 mL | Tumor Volume ([2]; valdecoxib 160 ppm in diet, day 21): 0.2 mL | Tumor Volume ([2]; valdecoxib 160 ppm in diet, day 28): 0.25 mL | Tumor Volume ([2]; valdecoxib 160 ppm in diet, day 35): 0.32 mL | Tumor Volume ([2]; valdecoxib 160 ppm in diet, day 42): 0.36 mL

COc1ccc2c(c1)c(CC(=O)O)c(C)n2C(=O)c1ccc(Cl)cc1 [indomethacin]
formation of lung metastasis ([4]; mice with HT-29 tumors): ineffective | inhibition of tumor formation ([4]; mouse, in vivo, 2 mg/kg/day): 77%

NS(=O)(=O)c1ccc(-n2nc(C(F)(F)F)cc2-c2ccc(Cl)cc2)cc1 [SC-58236]
formation of lung metastasis ([4]; mice with HT-29 tumors): completely inhibited | reduction of tumor volume ([4]; mice with HT-29 tumors, COX-2 inhibitor in the diet): 89%
